According to ChEMBL document CHEMBL1201862, “PubChem BioAssay data set” (2004):
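Following 48 hours of exposure in 96-well plates, responses at five concentrations were used to interpolate endpoints linearly. GI50 is the concentration that inhibits growth by half.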 Calls of active or inactive are those of the source. Cut-off read from the data, not from the text of the source: active = GI50 up to about 1.1 µM and inactive = higher.

Legend:
Assay in all cases: NCI anticancer screen, dose series, 48 h
KM12 = tested on: KM12
TK-10 = tested on: TK-10
MDA-MB-231 = tested on: MDA-MB-231
OVCAR-8 = tested on: OVCAR-8
T47D = tested on: T47D
MCF7 = tested on: MCF7
HCT-116 = tested on: HCT-116
Hs-578T = tested on: Hs-578T
SF-539 = tested on: SF-539
RPMI-8226 = tested on: RPMI-8226
SK-MEL-2 = tested on: SK-MEL-2
MDA-MB-435 = tested on: MDA-MB-435
SK-OV-3 = tested on: SK-OV-3
SW-620 = tested on: SW-620
786-0 = tested on: 786-0
IGROV-1 = tested on: IGROV-1
HOP-92 = tested on: HOP-92
U-251 = tested on: U-251
HOP-62 = tested on: HOP-62
SNB-75 = tested on: SNB-75
PC-3 = tested on: PC-3
NCI-H522 = tested on: NCI-H522
Malme-3M = tested on: Malme-3M
SNB-19 = tested on: SNB-19
UO-31 = tested on: UO-31
OVCAR-5 = tested on: OVCAR-5
K562 = tested on: K562
M14 = tested on: M14
SF-295 = tested on: SF-295
HL-60 = tested on: HL-60
SF-268 = tested on: SF-268
RXF 393 = tested on: RXF 393
MDA-N = tested on: MDA-N
SK-MEL-28 = tested on: SK-MEL-28
HT-29 = tested on: HT-29
UACC-257 = tested on: UACC-257
SK-MEL-5 = tested on: SK-MEL-5
A498 = tested on: A498
ACHN = tested on: ACHN
NCI-H226 = tested on: NCI-H226
OVCAR-3 = tested on: OVCAR-3
OVCAR-4 = tested on: OVCAR-4
SN12C = tested on: SN12C
DU-145 = tested on: DU-145
EKVX = tested on: EKVX
SR = tested on: SR
COLO 205 = tested on: COLO 205
A549 = tested on: A549
LOX IMVI = tested on: LOX IMVI
CAKI-1 = tested on: CAKI-1
MOLT-4 = tested on: MOLT-4
CCRF-CEM = tested on: CCRF-CEM
NCI-H460 = tested on: NCI-H460
HCC 2998 = tested on: HCC 2998
NCI-H23 = tested on: NCI-H23
NCI/ADR-RES = tested on: NCI/ADR-RES
HCT-15 = tested on: HCT-15
UACC-62 = tested on: UACC-62
BT-549 = tested on: BT-549

OCC(O)C(O)C(O)C(/C=N\Nc1ncnc2ccc(Br)cc12)=N/Nc1ncnc2ccc(Br)cc12 (stereo unspecified)
GI50 (KM12): 17.2 µM (inactive)
GI50 (TK-10): 80.5 µM (inactive)
GI50 (MDA-MB-231): 2.87 µM (inactive)
GI50 (OVCAR-8): 4.01 µM (inactive)
GI50 (T47D): 3.2 µM (inactive)
GI50 (MCF7): 34.4 µM (inactive)
GI50 (HCT-116): 3.09 µM (inactive)
GI50 (Hs-578T): > 100 µM (inactive)
GI50 (SF-539): 8.3 µM (inactive)
GI50 (RPMI-8226): > 100 µM (inactive)
GI50 (SK-MEL-2): 3.33 µM (inactive)
GI50 (MDA-MB-435): 12.9 µM (inactive)
GI50 (SK-OV-3): 6.38 µM (inactive)
GI50 (SW-620): 6.62 µM (inactive)
GI50 (786-0): 5.47 µM (inactive)
GI50 (IGROV-1): 4.09 µM (inactive)
GI50 (HOP-92): 13.8 µM (inactive)
GI50 (U-251): 3.34 µM (inactive)
GI50 (HOP-62): 7.16 µM (inactive)
GI50 (SNB-75): 24.4 µM (inactive)
GI50 (PC-3): 19 µM (inactive)
GI50 (NCI-H522): 0.596 µM (active)
GI50 (Malme-3M): 3.53 µM (inactive)
GI50 (SNB-19): 51.5 µM (inactive)
GI50 (UO-31): 37.5 µM (inactive)
GI50 (OVCAR-5): 16.7 µM (inactive)
GI50 (K562): 7.48 µM (inactive)
GI50 (M14): 9.48 µM (inactive)
GI50 (SF-295): 23 µM (inactive)
GI50 (HL-60): 3.15 µM (inactive)
GI50 (SF-268): 0.423 µM (active)
GI50 (RXF 393): 24.9 µM (inactive)
GI50 (MDA-N): 15.1 µM (inactive)
GI50 (SK-MEL-28): 45.9 µM (inactive)
GI50 (HT-29): 4.44 µM (inactive)
GI50 (UACC-257): 7.48 µM (inactive)
GI50 (SK-MEL-5): 3.37 µM (inactive)
GI50 (A498): 50.5 µM (inactive)
GI50 (ACHN): 5.24 µM (inactive)
GI50 (NCI-H226): 5.58 µM (inactive)
GI50 (OVCAR-3): 2.72 µM (inactive)
GI50 (OVCAR-4): 2.94 µM (inactive)
GI50 (SN12C): 17.9 µM (inactive)
GI50 (DU-145): 5.65 µM (inactive)
GI50 (EKVX): 4.42 µM (inactive)
GI50 (SR): 3.17 µM (inactive)
GI50 (COLO 205): 3.31 µM (inactive)
GI50 (A549): 23.2 µM (inactive)
GI50 (LOX IMVI): 5.12 µM (inactive)
GI50 (CAKI-1): 4.55 µM (inactive)
GI50 (MOLT-4): 2.62 µM (inactive)

COC(=O)c1c2c(cc3c1CC1(Cc4cc5c(c(C)c4C1)CCC5)C3)CCC2 (stereo unspecified)
GI50 (TK-10): > 100 µM (inactive)
GI50 (MDA-MB-231): > 100 µM (inactive)
GI50 (OVCAR-8): > 100 µM (inactive)
GI50 (T47D): > 100 µM (inactive)
GI50 (MCF7): > 100 µM (inactive)
GI50 (HCT-116): > 100 µM (inactive)
GI50 (Hs-578T): > 100 µM (inactive)
GI50 (SF-539): > 100 µM (inactive)
GI50 (RPMI-8226): > 100 µM (inactive)
GI50 (SK-MEL-2): > 100 µM (inactive)
GI50 (CCRF-CEM): > 100 µM (inactive)
GI50 (MDA-MB-435): > 100 µM (inactive)
GI50 (SK-OV-3): > 100 µM (inactive)
GI50 (SW-620): > 100 µM (inactive)
GI50 (786-0): > 100 µM (inactive)
GI50 (IGROV-1): > 100 µM (inactive)
GI50 (HOP-92): > 100 µM (inactive)
GI50 (U-251): > 100 µM (inactive)
GI50 (HOP-62): > 100 µM (inactive)
GI50 (PC-3): > 100 µM (inactive)
GI50 (NCI-H522): > 100 µM (inactive)
GI50 (Malme-3M): > 100 µM (inactive)
GI50 (SNB-19): > 100 µM (inactive)
GI50 (UO-31): > 100 µM (inactive)
GI50 (NCI-H460): > 100 µM (inactive)
GI50 (OVCAR-5): > 100 µM (inactive)
GI50 (HCC 2998): > 100 µM (inactive)
GI50 (K562): > 100 µM (inactive)
GI50 (M14): > 100 µM (inactive)
GI50 (SF-295): > 100 µM (inactive)
GI50 (HL-60): > 100 µM (inactive)
GI50 (SF-268): > 100 µM (inactive)
GI50 (RXF 393): 90.4 µM (inactive)
GI50 (MDA-N): > 100 µM (inactive)
GI50 (SK-MEL-28): > 100 µM (inactive)
GI50 (HT-29): > 100 µM (inactive)
GI50 (UACC-257): > 100 µM (inactive)
GI50 (SK-MEL-5): > 100 µM (inactive)
GI50 (A498): > 100 µM (inactive)
GI50 (ACHN): > 100 µM (inactive)
GI50 (OVCAR-3): > 100 µM (inactive)
GI50 (OVCAR-4): > 100 µM (inactive)
GI50 (DU-145): > 100 µM (inactive)
GI50 (EKVX): > 100 µM (inactive)
GI50 (NCI-H23): > 100 µM (inactive)
GI50 (NCI/ADR-RES): > 100 µM (inactive)
GI50 (HCT-15): > 100 µM
GI50 (SR): > 100 µM (inactive)
GI50 (A549): > 100 µM (inactive)
GI50 (LOX IMVI): > 100 µM (inactive)
GI50 (CAKI-1): > 100 µM (inactive)
GI50 (MOLT-4): > 100 µM (inactive)

Cc1ccc(C(=O)Nc2ccc(S(=O)(=O)O)c3cc(S(=O)(=O)O)cc(S(=O)(=O)O)c23)cc1NC(=S)Nc1cc(C(=O)Nc2ccc(S(=O)(=O)O)c3cc(S(=O)(=O)O)cc(S(=O)(=O)O)c23)ccc1C
GI50 (TK-10): > 75 µM (inactive)
GI50 (MDA-MB-231): > 75 µM (inactive)
GI50 (OVCAR-8): > 75 µM (inactive)
GI50 (MCF7): > 75 µM (inactive)
GI50 (HCT-116): > 75 µM (inactive)
GI50 (RPMI-8226): > 75 µM (inactive)
GI50 (SK-MEL-2): > 75 µM (inactive)
GI50 (CCRF-CEM): > 75 µM (inactive)
GI50 (MDA-MB-435): > 75 µM (inactive)
GI50 (SW-620): > 75 µM (inactive)
GI50 (786-0): > 75 µM (inactive)
GI50 (IGROV-1): > 75 µM (inactive)
GI50 (U-251): > 75 µM (inactive)
GI50 (HOP-62): > 75 µM (inactive)
GI50 (SNB-75): > 75 µM (inactive)
GI50 (PC-3): > 75 µM (inactive)
GI50 (UACC-62): > 75 µM (inactive)
GI50 (NCI-H522): > 75 µM (inactive)
GI50 (Malme-3M): > 75 µM (inactive)
GI50 (SNB-19): > 75 µM (inactive)
GI50 (UO-31): > 75 µM (inactive)
GI50 (NCI-H460): > 75 µM (inactive)
GI50 (OVCAR-5): > 75 µM (inactive)
GI50 (HCC 2998): > 75 µM (inactive)
GI50 (K562): > 75 µM (inactive)
GI50 (M14): > 75 µM (inactive)
GI50 (HL-60): > 75 µM (inactive)
GI50 (SF-268): > 75 µM (inactive)
GI50 (MDA-N): > 75 µM (inactive)
GI50 (SK-MEL-28): > 75 µM (inactive)
GI50 (HT-29): > 75 µM (inactive)
GI50 (UACC-257): > 75 µM (inactive)
GI50 (SK-MEL-5): > 75 µM (inactive)
GI50 (A498): > 75 µM (inactive)
GI50 (ACHN): > 75 µM (inactive)
GI50 (NCI-H226): > 75 µM (inactive)
GI50 (OVCAR-3): > 75 µM (inactive)
GI50 (OVCAR-4): > 75 µM (inactive)
GI50 (SN12C): > 75 µM (inactive)
GI50 (DU-145): > 75 µM (inactive)
GI50 (NCI-H23): > 75 µM (inactive)
GI50 (HCT-15): > 75 µM
GI50 (SR): > 75 µM (inactive)
GI50 (BT-549): > 75 µM (inactive)
GI50 (A549): > 75 µM (inactive)
GI50 (LOX IMVI): > 75 µM (inactive)
GI50 (CAKI-1): > 75 µM (inactive)
GI50 (MOLT-4): > 75 µM (inactive)
